Laboratory results: patent US4230879A, “15-Deoxy-16-hydroxy-16-formyo or dimethoxy-methyl-prostane derivatives of the E and F series” (American Cyanamid Company, priority 1979, dated 1980)

Test system: Histamine
Assay: KONZETT (Histamine)
Assay type: in vivo
Settings: spasmogen histamine

CCCCC(O)(C=O)C/C=C/[C@H]1[C@H](O)CC(=O)[C@@H]1CCCCCCC(=O)O (relative stereo) [dl-11α,16α/β-dihydroxy-9-oxo-16-formyl-13-trans-prostenoic acid]
ED50: 8.89 µg/kg
